Laboratory results taken from patent US8507514B2, “Hydrazide compound and use of the same in pest control” (Sumitomo Chemical Company, Limited, priority 2009, dated 2013).

What was measured:
[1] = system: Spodoptela litura; assay: Test Example 4: Spodoptela litura larvae on treated artificial diet; assay type: in vivo; settings: 144 h; 500 ppm test solution, 2 mL on artificial diet Insecta LF; 5 fourth instar larvae; after 6 days; read-out: pest death rate
Description: (§1) Formulations of some compounds of the present invention were obtained according to Formulation Example 5. The formulation was diluted with water to prepare a test solution having 500 ppm of the active ingredient.
A filter paper having a diameter of 5.5 cm was spread on the bottom of a polyethylene cup having a diameter of 5.5 cm. Insecta LF (manufactured by NOSAN CORPORATION), an artificial diet, was sliced to 6 mm in thickness, cut into half, and then placed on the filter paper. Then, 2 mL of the test solution was poured into the polyethylene cup. After the test solution was air-dried, 5 fourth instar larvae of Spodoptela litura were released into the polyethylene cup and the cup was sealed with a lid. After 6 days, the number of surviving or dead Spodoptela litura was counted and a pest death rate was calculated according to the following equation. Pest death rate(%)=(Number of dead larvae/Number of tested larvae)×100

[2] = system: Musca domestica; assay: Test Example 1: Musca domestica filter paper/sucrose bait test; assay type: in vivo; settings: 500 ppm test solution, 0.7 ml on filter paper with sucrose bait, 10 female imagoes, after 24 hours, read-out: pest death rate
Description: as §1
A filter paper having a diameter of 5.5 cm was spread on the bottom of a polyethylene cup having a diameter of 5.5 cm and 0.7 ml of the test solution was added dropwise onto the filter paper. As a bait, 30 mg of sucrose was uniformly placed on the filter paper. Into the polyethylene cup, 10 female imagoes of Musca domestica were released and the cup was sealed with a lid. After 24 hours, the number of surviving or dead Musca domestica was counted and a pest death rate was calculated according to the following equation. Pest death rate(%)=(Number of dead imagoes/Number of tested imagoes)×100

Row | Structure (SMILES) | pest or weed control at 500 ppm [1] | pest or weed control at 500 ppm [2]
1 | CC(=O)NN(C(=O)OC(C)(C)C)c1cccc(C2=NOC(c3cc(Cl)cc(Cl)c3)(C(F)(F)F)C2)c1 (stereo not shown) [(1)] | ≥ 80% | 100%
2 | CC(=O)NN(C)c1cccc(C2=NOC(c3cc(Cl)cc(Cl)c3)(C(F)(F)F)C2)c1 (stereo not shown) [(5)] | ≥ 80% | –
3 | O=C(CC(F)(F)F)NNc1cccc(C2=NOC(c3cc(Cl)cc(Cl)c3)(C(F)(F)F)C2)c1 (stereo not shown) [(7)] | – | 100%
4 | Cc1ccc(C2=NOC(c3cc(Cl)cc(Cl)c3)(C(F)(F)F)C2)cc1NNC(=O)CC(F)(F)F (stereo not shown) [(8)] | – | 100%
5 | O=C(CC(F)(F)F)NNc1cc(C2=NOC(c3cc(Cl)cc(Cl)c3)(C(F)(F)F)C2)ccc1F (stereo not shown) [(10)] | – | 100%
6 | O=C(CC(F)(F)F)NNc1cc(C2=NOC(c3cc(Cl)cc(Cl)c3)(C(F)(F)F)C2)ccc1Cl (stereo not shown) [(11)] | – | 100%
7 | CC(C)CC(=O)NNc1cc(C2=NOC(c3cc(Cl)cc(Cl)c3)(C(F)(F)F)C2)ccc1Cl (stereo not shown) [(15)] | – | 100%
8 | CC(C)(C)C(=O)NNc1cc(C2=NOC(c3cc(Cl)cc(Cl)c3)(C(F)(F)F)C2)ccc1Cl (stereo not shown) [(23)] | – | 100%
9 | O=C(Cc1ccccc1)NNc1cc(C2=NOC(c3cc(Cl)cc(Cl)c3)(C(F)(F)F)C2)ccc1Cl (stereo not shown) [(26)] | ≥ 80% | –
10 | O=C(CCCBr)NNc1cc(C2=NOC(c3cc(Cl)cc(Cl)c3)(C(F)(F)F)C2)ccc1Cl (stereo not shown) [(34)] | ≥ 80% | –
11 | O=C(CCCC(F)(F)F)NNc1cc(C2=NOC(c3cc(Cl)cc(Cl)c3)(C(F)(F)F)C2)ccc1Cl (stereo not shown) [(36)] | ≥ 80% | 100%
12 | COCC(=O)NNc1cc(C2=NOC(c3cc(Cl)cc(Cl)c3)(C(F)(F)F)C2)ccc1Cl (stereo not shown) [(38)] | ≥ 80% | 100%
13 | CC(C)(CCl)C(=O)NNc1cc(C2=NOC(c3cc(Cl)cc(Cl)c3)(C(F)(F)F)C2)ccc1Cl (stereo not shown) [(40)] | ≥ 80% | 100%
14 | CC(=O)N(NC(=O)CCC(F)(F)F)c1cc(C2=NOC(c3cc(Cl)cc(Cl)c3)(C(F)(F)F)C2)ccc1Cl (stereo not shown) [(53)] | ≥ 80% | –
15 | COCC(=O)NN(C(=O)c1ccccc1)c1cc(C2=NOC(c3cc(Cl)cc(Cl)c3)(C(F)(F)F)C2)ccc1Cl (stereo not shown) [(57)] | ≥ 80% | –
